Laboratory results published in ChEMBL document CHEMBL1201862, “PubChem BioAssay data set” (2004).
Active and inactive are the calls of the source.

Key:
[1] = A375 melanoma cell viability loss, dose response, counter-screen for MITF inhibitor project, CellTiter-Glo luminescence, dry powder, set 4 (AID 624364); assay type: functional, cell-based; details: A-375;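 note: A375 melanoma cells are MITF independent so this is a counter screen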
[2] = THP-1 cell cytotoxicity, dose response, cytotoxicity control for non-replicating M. tuberculosis project (AID 489025); assay type: functional
[3] = target: Fructose-bisphosphate aldolase (Mycobacterium tuberculosis, UniProt P9WQA3); experiment: Fluorescence-based biochemical high throughput dose response assay for inhibitors of the fructose-bisphosphate aldolase (FBA) of M. tuberculosis.; assay type: functional
cells [4] = assay type: functional
[5] = Luminescence Cell-Based Dose Response HTS to Identify Inhibitors of 5'UTR Stem-Loop Driven Prion Protein mRNA Translation in H4 Neuroglioblastoma Cells. [Related pubchem assays: 1827 (Project Summary), 1813 (Primary HTS)]; assay type: functional
[6] = HepG2 cell cytotoxicity, dose response, cytotoxicity control, plate reader, cherry-pick, antagonist series (AID 743416); assay type: functional, cell-based
[7] = MC4R antagonists, dose response, counter-screen for LGR2 antagonist project, cell-based, plate reader, cherry pick (AID 743444); assay type: functional;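 note: transfected HEK 293 cells stimulated with alpha-MSH peptide; potency of inhibitors of the alpha-MSH evoked signal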
HEK293 = experiment: inhibitors of LMP1-driven NF-kB reporter, dose response, cell-based, HEK293, luciferase, cherry-pick (AID 588343); assay type: functional; details: Homo sapiens
[8] = inhibitors of SNCA 5'UTR-driven reporter translation, confirmation, H4 neuroglioma cells, luminescence (AID 1988); assay type: functional, cell-based
[9] = A549 cell cytotoxicity, dose response, cytotoxicity control, plate reader, cherry-pick, antagonist series (AID 743412); assay type: functional, cell-based
[10] = LGR2 antagonists, dose response, cell-based, HEK293, CRE-luciferase reporter, cherry pick, set 2 (AID 743343); assay type: functional;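 note: transfected cells were stimulated with diluted bursicon conditioned medium after compound addition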
[11] = target: Disintegrin and metalloproteinase domain-containing protein 17 (Homo sapiens, UniProt P78536); experiment: ADAM17 protease inhibitors, dose response, counter-screen for ADAM10 exosite inhibitor project, biochemical, quenched FRET substrate (AID 743253)
[12] = ADAM10 inhibitors, peptide cleavage, dose response, biochemical, QFRET (AID 743254);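 note: ADAM10 enzyme with the DM2 quenched FRET peptide as substrate; EDANS fluorescence gain as the protease cuts the substrate; inhibitor potency against ADAM10 proteolytic activity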
INS1 = experiment: beta cell apoptosis inhibitors, cytokine rescue, dose response, luminescence, retest (AID 449756); assay type: functional, cell-based; details: Rattus norvegicus;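 note: cell death triggered by IL-1 beta plus TNF-alpha plus IFN-gamma mixture; protective hits raise ATP signal compared with cytokine alone wells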
Galanin receptor type 3 = Galanin receptor type 3 (Homo sapiens, UniProt O60755); experiment: Fluorescence-based cell-based primary high throughput dose response assay to identify antagonists of the Galanin Receptor 3 (GalR3).; assay type: functional
cells [13] = assay type: functional, cell-based; details: HEK-CNG
Protein Wnt-3a = Protein Wnt-3a (Mus musculus, UniProt P27467); experiment: Wnt3a-driven reporter signaling inhibition, dose response, selectivity assay for Gli-SUFU antagonist project, Wnt-LIGHT cells, luminescence (AID 651570); assay type: functional; details: read-out: IC50_Mean;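 note: Wnt-LIGHT reporter cells stimulated with conditioned medium from Wnt3a-producing cells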
[14] = target: T1, COUP transcription factor 2 (Homo sapiens, UniProt P24468); experiment: Luminescence-based cell-based high throughput dose response assay to identify inhibitors of COUP-TFII (NR2F2).; assay type: functional;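 note: HEK293 cells transiently cotransfected with COUP-TFII expression vector and reporter; luciferase reporter luminescence driven by COUP-TFII from the pX2-168 reporter plasmid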
T1 sequence (P24468 whole entry): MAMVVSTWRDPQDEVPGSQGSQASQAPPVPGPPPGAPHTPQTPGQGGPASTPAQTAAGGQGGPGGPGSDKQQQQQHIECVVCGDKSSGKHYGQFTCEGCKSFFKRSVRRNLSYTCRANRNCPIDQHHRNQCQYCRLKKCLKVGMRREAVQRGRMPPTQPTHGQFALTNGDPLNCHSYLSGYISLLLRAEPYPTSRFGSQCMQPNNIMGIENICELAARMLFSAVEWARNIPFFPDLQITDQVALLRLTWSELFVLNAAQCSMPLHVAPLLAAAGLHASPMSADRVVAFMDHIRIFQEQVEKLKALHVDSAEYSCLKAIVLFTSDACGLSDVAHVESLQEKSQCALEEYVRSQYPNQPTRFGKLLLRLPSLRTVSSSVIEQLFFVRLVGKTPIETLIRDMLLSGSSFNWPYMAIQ

H9c2 = experiment: cells; assay type: functional, cell-based; details: Rattus norvegicus, H9c2, Myocardium;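 note: confirmatory concentration-response retest of ultra-high-throughput screening hits for modulation of myocardial damage; cell death induced by hydrogen peroxide oxidative stress; compound pretreatment for 60 min then peroxide exposure for 2 h; potency is for protecting the cells against peroxide damage rather than for killing them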
[15] = HEK293T cytotoxicity, dose response, cytotoxicity control for miR-122 modulator project, cell-based, inhibitor set, cherry-pick, set 2 (AID 720697); assay type: functional
[16] = ADAM10 protease inhibitors, dose response, selectivity assay for ADAM17 exosite inhibitor project, biochemical, FRET peptide substrate, recombinant human ADAM10 (AID 743259);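 note: ADAM10 enzyme cleaving a FRET peptide substrate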
[17] = growth suppression of PTEN-null colon cells, dose response, cell-based, HCT116 PTEN knockout (AID 1047); assay type: functional;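 note: HCT116 colon tumor cells with PTEN knocked out; cells exposed to compound for 60 hours before readout; potency for loss of cell viability measured by luminescence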
[18] = growth suppression of beta-catenin-knockout colon cells, dose response, cell-based, HCT116, human colon tumor (AID 1045); assay type: functional;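 note: HCT116 colon tumor cells with beta catenin knocked out; cells exposed to compound for 60 hours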

Galanin receptor type 3, sequence (O60755 whole entry): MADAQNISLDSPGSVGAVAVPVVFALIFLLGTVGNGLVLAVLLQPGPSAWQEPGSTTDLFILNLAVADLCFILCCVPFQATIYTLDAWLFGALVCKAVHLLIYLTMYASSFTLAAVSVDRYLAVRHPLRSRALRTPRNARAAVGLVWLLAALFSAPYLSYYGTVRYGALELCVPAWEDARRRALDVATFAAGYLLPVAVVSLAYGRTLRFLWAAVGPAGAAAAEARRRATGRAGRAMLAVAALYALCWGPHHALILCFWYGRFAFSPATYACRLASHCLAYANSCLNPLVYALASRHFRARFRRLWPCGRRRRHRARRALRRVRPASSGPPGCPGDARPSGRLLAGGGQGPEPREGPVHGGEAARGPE
Protein Wnt-3a, sequence (P27467 whole entry): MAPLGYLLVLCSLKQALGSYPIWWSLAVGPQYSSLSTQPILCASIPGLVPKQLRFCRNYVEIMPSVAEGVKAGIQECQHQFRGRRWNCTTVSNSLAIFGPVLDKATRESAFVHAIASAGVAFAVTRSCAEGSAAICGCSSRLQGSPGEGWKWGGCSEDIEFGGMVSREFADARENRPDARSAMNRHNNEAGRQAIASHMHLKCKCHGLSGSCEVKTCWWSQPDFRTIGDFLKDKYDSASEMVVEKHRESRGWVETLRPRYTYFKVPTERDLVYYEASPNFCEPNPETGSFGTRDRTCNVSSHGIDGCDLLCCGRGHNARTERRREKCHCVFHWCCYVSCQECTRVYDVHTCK
Fructose-bisphosphate aldolase, sequence (P9WQA3 whole entry): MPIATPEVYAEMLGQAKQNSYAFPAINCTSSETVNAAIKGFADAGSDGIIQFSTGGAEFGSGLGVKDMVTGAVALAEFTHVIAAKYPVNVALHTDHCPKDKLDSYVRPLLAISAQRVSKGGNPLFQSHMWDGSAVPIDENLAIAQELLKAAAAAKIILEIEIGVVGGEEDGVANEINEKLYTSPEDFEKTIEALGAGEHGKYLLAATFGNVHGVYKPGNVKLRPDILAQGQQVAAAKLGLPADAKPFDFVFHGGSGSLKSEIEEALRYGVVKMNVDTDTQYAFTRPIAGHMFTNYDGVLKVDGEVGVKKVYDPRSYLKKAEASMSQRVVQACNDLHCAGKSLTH
Disintegrin and metalloproteinase domain-containing protein 17, sequence (P78536 whole entry, the tested form may be a part): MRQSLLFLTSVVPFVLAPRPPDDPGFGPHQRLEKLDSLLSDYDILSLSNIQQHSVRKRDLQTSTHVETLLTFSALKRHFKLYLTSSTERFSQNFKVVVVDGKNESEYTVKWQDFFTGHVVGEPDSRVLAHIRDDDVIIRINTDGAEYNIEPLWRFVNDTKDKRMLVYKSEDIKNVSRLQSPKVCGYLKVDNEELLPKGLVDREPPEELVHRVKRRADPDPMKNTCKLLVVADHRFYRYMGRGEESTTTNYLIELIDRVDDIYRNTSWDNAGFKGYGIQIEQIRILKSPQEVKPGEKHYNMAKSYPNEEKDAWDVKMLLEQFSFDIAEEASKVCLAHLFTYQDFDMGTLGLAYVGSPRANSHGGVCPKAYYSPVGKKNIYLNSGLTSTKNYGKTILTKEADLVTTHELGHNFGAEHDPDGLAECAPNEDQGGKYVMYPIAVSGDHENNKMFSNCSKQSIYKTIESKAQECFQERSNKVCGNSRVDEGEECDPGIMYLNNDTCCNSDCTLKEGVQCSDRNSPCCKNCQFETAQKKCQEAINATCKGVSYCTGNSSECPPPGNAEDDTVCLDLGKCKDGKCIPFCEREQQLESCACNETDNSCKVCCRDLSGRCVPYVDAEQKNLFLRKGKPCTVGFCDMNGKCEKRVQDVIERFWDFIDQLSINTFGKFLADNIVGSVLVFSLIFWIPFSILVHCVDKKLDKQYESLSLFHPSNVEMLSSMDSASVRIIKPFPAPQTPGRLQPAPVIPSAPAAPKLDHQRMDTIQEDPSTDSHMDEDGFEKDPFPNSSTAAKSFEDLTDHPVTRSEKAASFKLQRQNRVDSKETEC

With `C=CCNC1=C(NS(=O)(=O)c2cccs2)C(=O)c2ccccc2C1=O` the AC50 [1] was > 70 µM (inactive).

In the case of `COc1ccc2nc(N=C(N)NC(=O)C(C)(C)C)nc(C)c2c1`, the CC50 [2] is reported as > 40 µM (active), the IC50 [3] is reported as 1.89 µM (active) and the IC50 (cells [4]) is reported as 9.61 µM (active).

For `O=C(NCCc1ccccc1)c1ccc2nccnc2c1`, the EC50 [5] was 9.34 µM (active), the AC50 [6] was 20.3 µM (active) and the AC50 [7] was 4.77 µM (active). The AC50 (HEK293) was 3.05 µM (active), the EC50 [8] was 9.37 µM (active) and the AC50 [9] was 22.1 µM (active). The AC50 [10] was 5 µM (active).

With `COc1ccc(NC(S)=Nc2cc(-c3ccccc3)[nH]n2)cc1Cl` the IC50 [11] was > 69.5 µM (inactive) and the IC50 [12] was > 69.5 µM (inactive).

With `NC(=O)c1c(-c2ccc(Cl)cc2Cl)csc1NC(=O)Cc1ccccc1` the AC50 (INS1) was 2.86 µM (active), the IC50 (Galanin receptor type 3) was 0.513 µM (active) and the EC50 (cells [13]) was > 29.9 µM (inactive). For the same compound, the IC50 (Protein Wnt-3a) was 1.91 µM (active) and the IC50 [14] was 5.15 µM (active).

With `CC(C)C[C@H](NC(=O)c1[nH]cnc1C(=O)Nc1ccc(CNC(=O)OC(C)(C)C)cc1)C(=O)OC(C)(C)C` the IC50 [12] was > 69.5 µM (inactive).

With `Cc1noc(C)c1Cn1nc(C(=O)O)c2ccccc2c1=O` the IC50 (Galanin receptor type 3) was > 29.9 µM (inactive), the EC50 (cells [13]) was > 29.9 µM (inactive) and the IC50 (H9c2) was 18.6 µM (active).

For `CCC(=O)N1[C@H](CO)[C@@H](c2ccccc2)[C@@H]1CN(C(C)C)S(C)(=O)=O`, the AC50 [15] was 510 nM (active).

With `COc1cc(-c2nc(-c3ccc4c(c3)-c3ccccc3S4(=O)=O)c(-c3ccccc3)[nH]2)cc(OC)c1O` the IC50 [16] was > 69.5 µM (inactive), the EC50 [17] was 14 µM (active) and the EC50 [18] was 19.8 µM (active).
